Results on 5 compounds are retold here after patent US20240368351A1, “FACTORS CONTROLLING DRUG RELEASE IN CROSS-LINKED POLY(VALEROLACTONE) BASED MATRICES” (Pendant Biosciences, Inc., priority 2019, published 2024).

Converted amounts (≈) assume the structure as drawn.

A short description of series [1]: logP (octanol-water partition) by shake tube method. Format: physicochemical. To be noted: for logP: read-out: Calculated LogP.
Series [2] in a line: Drug solubility in different release media (PBS with Tween 80 or SDS). The series is classed as physicochemical. To be noted: for solubility at 48 h: release media (PBS with Tween 80 or SDS), 37 °C, pH 7.4, aqueous with cosolvent or surfactant or cyclodextrin, thermodynamic from solid. As to the method: Mikkelsen, L. M., Enzyme solubility in liquid detergent and use of detergent composition. […] Crotts, G.; Park, T. G. Protein delivery from poly(lactic-co-glycolic acid) biodegradable microspheres: Release kinetics and stability issues. […] FDA.
The solutions were centrifuged at 8000 rpm for 10 minutes, and a 1 ml aliquot was withdrawn, filtered through a 0.45 μm nylon membrane, and analyzed by HPLC.

A short description of series [3]: Solubility of Drug X in organic solvents and water. Format: physicochemical.
Series [4] can be described thus: In vitro drug release from microparticles. The series is classed as physicochemical. The source says:
There is no significant difference with Mesh, NaCl, and EtOH for release rate. Drug X loaded MPs show insufficient washing (high t=0) and burst release in a day.
Method: We will use a dialysis bag to properly change release media without loss of microparticle. This will prevent accumulation of Drug X degradation over time and allow more accurate release analysis. We will examine release with Drug X-loaded microparticle in different media (i.e. only PBS at pH 7.5).
(§1) Method: Drug X-loaded microparticle in release media will be taken after 1 hrs and utilized to extract residue Drug X from microparticle.

A short description of series [5]: Extraction and recovery of Drug X from discs and microparticles (stability in polymer matrix). The series is classed as physicochemical. The method, then: In Table 53, a study was conducted in which a Drug X-loaded disc was placed in 10 mL of dichloromethane (DCM) for 8 hr at room temperature to extract Drug X, and DCM was removed using a rotary evaporator at 25° C. This extraction process was repeated two times. The extracted drug dissolved in a acetonitrile (ACN) was filtered using 0.45 μm a nylon membrane and measured by HPLC for extraction efficiency.
as §1
We took out a disc after 2 weeks of release and freeze fried it. Then, the residual Drug X remaining in discs was extracted using dichloromethane to confirm Drug X stability in the disc.

For series [6] the following is noted: cited from earlier work.
A further series has as its system blood plasma protein. To be noted: cited from earlier work.
Series [7] in a line: In vitro drug release from cross-linked matrices (CPs), sample-and-separate, with mathematical modeling (Fick diffusion). Format: physicochemical. To be noted: after 35 days; embodiment statement. The method, then: Evaluation of in vitro drug release: impact of the nature of the drug, polymer and release media: In the in vitro release studies the impact of a number of variables was evaluated including nature of the drug, compatibility between the drug and the polymer matrix, degree of crystallinity of the matrix, M.W. of the copolymer, cross-linking density and the composition of the release media. The commonly used, sample-and-separate method was employed to evaluate drug release from the cross-linked matrices. D'Souza, S. S.; DeLuca, P. P. Methods to Assess in vitro Drug Release from Injectable Polymeric Particulate Systems. Pharmaceutical Research 2006, 23, 3, 460-474.
The Peppas-Sahlin model, where diffusion and polymer relaxation are known to be the underlying drivers of drug release provided the best fit in terms of R^2adjusted (FIGS. 8A and 8C) For cylindrical shaped matrices, Fickian diffusion is considered to be operative when the ratio of diameter to thickness (n or m) of the matrix is equal to or less than 0.45. If the value is […], the drug release mechanism is considered non-Fickian; whereas, if n is 0.89 drug release is considered to be case II transport. Herein, the dimension and the geometry of the matrices evaluated have a value of 0.78<n<0.80. […]
Protocols for drug analysis by HPLC and cytotoxicity evaluation of the cross-linked matrices: The drug release was analyzed by reverse phase HPLC using an Agilent 1200 HPLC system with Agilent ChemStation software, an XDB C18 column (150×4.6 mm i.d+guard column) and UV detection. […] Drug concentrations were quantified using calibration curves using standards that ranged in concentration from 1 to 100 μg/ml (0.9986≤R^2≤1).
The CPs were incubated at 37° C. under constant stirring and at pre-determined time points, a 1 ml aliquout was removed and replaced with 1 mL of fresh media and the samples were immediately frozen at −20° C. for storage prior to HPLC analysis. […] The drug was reconstituted in 1 ml of the HPLC mobile phase and analyzed to correct the DLC and release curves. […]

The conditions of series [8]: pure PBS pH 7.4; cited from earlier work.
Series [9] concerns L929 mouse fibroblast cells.
Method: Cytotoxicity evaluation: CPs were incubated in culture media at a surface area to volume ratio of 1.25 cm^2/mL for 48 h. […] The L929 fibroblast cells were cultured and routinely maintained in Dulbecco's modified Eagle's medium (DMEM) supplemented with 10% fetal bovine serum (FBS) and 1% penicillin-streptomycin. The cells were grown in a monolayer in tissue culture flasks incubated at 37° C. and 5% CO2 at 90% relative humidity. Cells were counted and seeded in 96-well plates at a density of 2000 cells/well, which was determined to be the optimum cell density. After 24 h incubation, growth media was aspirated and replaced with either 150 μL CPs extracts at a surface area to volume ratio of 1.25 cm^2/mL or the same volume of extraction media that had been serially diluted to the above concentrations. Following 24, 48, and 72 h incubation periods, cell viability was evaluated using the MTS assay. Specifically, the extraction media was aspirated and replaced with 200 μL of fresh media followed by 20 μL of MTS reagent, and the cells were incubated at 37° C. for 1.5 h. Cell viability was measured by optical absorbance at 2=490 nm using a Cytation™ 5 Cell Imaging Multi-Mode Reader (BioTek, Vermont). […]
The cytotoxicities of the cross-linked matrices were evaluated in L929 mouse fibroblast cells using the extraction dilution method (FIG. 16).

Take `COc1cc(/C=C/C(=O)CC(=O)/C=C/c2ccc(O)c(OC)c2)ccc1O` [Curcumin, curcumin]: the “Calculated LogP” value in [1] is recorded as 3. For the same compound, in [2], the solubility – broadly, the dissolved amount per volume that the medium holds – at 48 h stood at 45.6 ± 1.05 µg/mL (≈ 124 µM).

`CC(C)OC(=O)[C@H](C)N[P@](=O)(CO[C@H](C)Cn1cnc2c(N)ncnc21)Oc1ccccc1` [Drug X]: the “Solubility in EtOH/DMSO (50/50)” value in series [3] (5 mg per 100 mL or μL) is “Soluble, and”. For the same compound, in series [3] (5 mg per 200 mL or μL), the “Solubility in DMSO/Water (50/50)” value is “Insoluble” and the “Solubility in Water” value is “Insoluble”. For the same compound, the “time within which most of Drug X is released from MP” value in [4] is not above 1 h. In addition, the “Drug X remained inside the MP after extraction” value in series [4] (after 1 hr release) is recorded as “around 100 μg”. For the same compound, the “degradation (second HPLC peak) in release and extraction samples” value in series [5] (1 hr time point, microparticles) is “no second peak detected”. The “Drug X recovered from the extraction” value in series [5] (after two-day release) is listed as approximately 35%. In addition, the “drug recovered from the discs (release & extraction)” value in series [5] (disc after 2 weeks of release, dichloromethane extraction) is on record as 88-93%. In series [5] (during the two-day release), the “Drug X released” value was approximately 50%. In series [5] (in the disc), this compound yielded an extraction efficiency of 85%. Further, the “total recovered of the encapsulated Drug X” value in series [5] (release plus extraction) is 83%-90%. Also, in series [6], the Log P (commonly a log measure of how a compound divides between an organic and an aqueous phase) was 1.6; the Water solubility entry is “(4.86 mg/mL)”; the “Water solubility (words)” value was “Soluble in water”; the pKa (as a rule, the pH at which an ionisable group is half protonated) was 2.74. For the same compound, the “bound to blood plasma protein” value in the series with blood plasma protein was 80%.

Consider `CC(=O)O[C@H]1C(=O)[C@@]2(C)[C@H]([C@H](OC(=O)c3ccccc3)[C@]3(O)C[C@H](OC(=O)[C@H](O)[C@@H](NC(=O)c4ccccc4)c4ccccc4)C(C)=C1C3(C)C)[C@]1(OC(C)=O)CO[C@@H]1C[C@@H]2O` [Paclitaxel, paclitaxel], for which the logP (usually a log measure of how a compound divides between an organic and an aqueous phase) in series [1] was 2.7. In series [2] (PBS), the “solubility, times greater in 0.5% SDS than in 0.1% SDS” value amounted to 10 times and the “solubility, times greater in 0.5% SDS than in 0.1% Tween 80” value came to 50 times. The amount in solution in series [2] (solubility at 48 h) came to 106 ± 0.57 µg/mL (≈ 124 µM). Moreover, in [7], the “cumulative release from the drug-loaded crosslinked copolymer” value is given as “about 58 wt %”.

As to `CC1(C)O[C@@H]2C[C@H]3[C@@H]4CCC5=CC(=O)C=C[C@]5(C)[C@@]4(F)[C@@H](O)C[C@]3(C)[C@]2(C(=O)CO)O1` [Triamcinolone acetonide, triamcinolone acetonide], the logP in [1] was 2.3. The solubility at 48 h in series [2] came out at 287 ± 56.9 µg/mL (≈ 661 µM). Moreover, the TAA solubility in [8] was 2.1 µg/mL.

high density polyethylene [HDPE]: the “decrease in cell viability relative to the untreated control” value in [9] is “approximately 66%”.
